According to PubChem BioAssay (NCI):
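Five concentrations, 48 hours, 96-well plates. TGI: total growth inhibition.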

System: DU-145 prostate
Experiment: NCI anticancer screen, dose series, 48 h

Question: With `Cc1ccc(S(=O)(=O)n2c3c(c4ccccc42)CCN2C[C@H]([C@H](C)Br)CC[C@@H]32)cc1` as the compound, how does the TGI read?
Answer: The TGI was greater than 100 µM.

Question: With `O=c1oc2cc(O)ccc2c(O)c1C(c1ccccc1)c1c(O)c2ccc(O)cc2oc1=O` as the compound, how does the TGI read?
Answer: The TGI was greater than 100 µM.

Question: For `CC(C)c1cc2c(c(O)c1O)[C@@]1(C(=O)O)CCCC(C)(C)[C@@H]1CC2`, which TGI is on record?
Answer: The TGI was greater than 100 µM.

Question: Which TGI does the source give for `COC1=CC(=O)c2c(c(-c3nc(C)cs3)cn2C)C1=O` here?
Answer: The TGI was 18.3 µM.

Question: With `Cc1c(O)nc(-n2[nH]c3c(c2=O)CCCC3)[nH]c1=O` as the compound, how does the TGI read?
Answer: The TGI was greater than 100 µM.

Question: Which TGI does the source give for `CCCNc1ncnc2c1ncn2C` here?
Answer: Its TGI is greater than 100 µM.

Question: How did the TGI turn out when `CCOS(C)(=O)=O` was run?
Answer: Its TGI is greater than 100 µM.

Question: How did the TGI turn out when `CC(C)SC(=S)Sc1c(Cl)c(Cl)nc(Cl)c1Cl` was run?
Answer: Its TGI is 11.3 µM.

Question: How did the TGI turn out when `O=C(O)CN1CCNCCN(CC(=O)O)CCN(CC(=O)O)CCNCC1` was run?
Answer: Its TGI is greater than 100 µM.

Question: How did the TGI turn out when `CC(NC(=O)Cc1ccccc1)NC(=O)C(C)C(=O)Nc1ccccc1` (configuration not stated) was run?
Answer: The TGI was greater than 100 µM.

Question: How did the TGI turn out when `CCCCCCCCCCCC[S+](C)C` was run?
Answer: Its TGI is 17.6 µM.

System: EKVX NSCLC
Experiment: NCI anticancer screen, dose series, 48 h

Question: For `CC1=CCC([C@@](C)(O)CCCC(C)(C)N=C=S)CC1` (some centres not stated), which TGI is on record?
Answer: Its TGI is 32.5 µM.

Question: `C=C1C(=O)CC2C1CC(=O)/C(C)=C/CCC(C)(O)C2O` (configuration not stated) was tested. Which TGI did it give?
Answer: The TGI was 34.3 µM.

Question: Which TGI does the source give for `O=C1C=C/C(=N\N=C(c2ccccc2)c2ccccc2)O1` here?
Answer: The TGI was greater than 10 µM.

Question: How did the TGI turn out when `N[C@@H](Cc1ccccc1)C(=O)N1CCC[C@@H]1P(=O)(Oc1ccccc1)Oc1ccccc1` was run?
Answer: Its TGI is greater than 100 µM.

Question: With `O=c1[nH][nH]c(=O)n1CCCCCCn1c(=O)[nH][nH]c1=O` as the compound, how does the TGI read?
Answer: Its TGI is greater than 100 µM.

Question: Which TGI does the source give for `C[C@H](CCC(=O)O)[C@H]1CC[C@H]2[C@@H]3C(=O)C[C@@H]4C[C@H](O)CC[C@]4(C)[C@H]3C[C@H](O)[C@]12C` here?
Answer: The TGI was greater than 100 µM.

Question: How did the TGI turn out when `CC(=O)NC1C(OCc2ccccc2)OC(CO)C(O)C1OCC(=O)N[C@@H](C)C(=O)N[C@H](CCC(=O)NCCCNc1c2ccccc2nc2cccc([N+](=O)[O-])c12)C(N)=O` (some centres not stated) was run?
Answer: The TGI was 0.264 µM.

Question: With `COc1ccc(-c2nc(SCC(=O)NNC(=S)Nc3ccccc3)[nH]c2-c2ccc(OC)cc2)cc1` as the compound, how does the TGI read?
Answer: The TGI was 75.9 µM.

Question: `O=C(O)c1ccccc1CC(Cc1ccc2c(c1)CCC2)C(=O)O` (configuration not stated) was tested. Which TGI did it give?
Answer: The TGI was greater than 100 µM.

Question: With `Cn1c(SCc2ccc(F)cc2)nnc1C12CC3CC(CC(C3)C1)C2` as the compound, how does the TGI read?
Answer: The TGI was greater than 100 µM.

Question: `COC(=O)/C=C\C(C#N)(C#N)N=Cc1ccc(C)cc1` was tested. Which TGI did it give?
Answer: The TGI was 28.7 µM.

Question: For `CC(c1ccccc1)N1CCN(C(C)c2ccccc2)CC1` (configuration not stated), which TGI is on record?
Answer: Its TGI is greater than 100 µM.

Question: `CCCCCC#CCOC(=O)C(=[N+]=[N-])P(=O)(c1ccccc1)c1ccccc1` was tested. Which TGI did it give?
Answer: Its TGI is greater than 10 µM.

Question: How did the TGI turn out when `COc1ccc(C(=O)/C=C/c2ccc(OCCCOc3ccc(/C=C/C(=O)c4ccc(OC)cc4)cc3)cc2)cc1` was run?
Answer: The TGI was greater than 100 µM.

Question: How did the TGI turn out when `COc1ccc(N2C(=O)CC(=O)N(NC(=O)C(C)Oc3ccccc3C)C2=S)cc1` (configuration not stated) was run?
Answer: Its TGI is greater than 100 µM.

Question: Which TGI does the source give for `COc1cc(OC)cc(C(=O)CC(=O)c2cc(OC)cc(OC)c2)c1` here?
Answer: The TGI was greater than 100 µM.

Question: With `O=C1OC(C2Cc3ccc4ccccc4c3C2=O)c2ccccc21` (configuration not stated) as the compound, how does the TGI read?
Answer: The TGI was greater than 100 µM.

Question: With `C/C(=N\N=C1/C(=O)OC(c2ccccc2)=C1C(=O)c1ccccc1)c1ccc([N+](=O)[O-])cc1` as the compound, how does the TGI read?
Answer: The TGI was greater than 100 µM.

Question: Which TGI does the source give for `O=C(O)[C@H]1CCCN1CP(=O)(O)CN1CCC[C@@H]1C(=O)O` here?
Answer: Its TGI is greater than 100 µM.

Question: For `O=S(=O)(O)C(CO)c1ccccc1` (configuration not stated) (tested in a mixture with another compound), which TGI is on record?
Answer: The TGI was greater than 100 µM.

Question: How did the TGI turn out when `COc1ccc(C2OC(c3ccncc3)=NN2C)cc1F` (configuration not stated) was run?
Answer: The TGI was greater than 100 µM.

Question: Which TGI does the source give for `O=C(/C=C/c1ccccc1)Oc1ccc(C(=O)/C=C/c2ccccc2)cc1` here?
Answer: Its TGI is 22 µM.

Question: Which TGI does the source give for `COC(=O)C(Cc1ccc2c(c1)CCC2)Cc1ccc2c(c1)CCC2` here?
Answer: The TGI was greater than 100 µM.

Question: With `NS(=O)(=O)c1ccc(NC(=S)/N=C/C2=C(O)c3ccccc3C2=O)cc1` as the compound, how does the TGI read?
Answer: The TGI was greater than 100 µM.

Question: `Cc1nc(C)c(C(=O)NNC(=O)C[N+](C)(C)C)cc1C(=O)NNC(=O)C[N+](C)(C)C` was tested. Which TGI did it give?
Answer: Its TGI is greater than 100 µM.

Question: For `CNc1cc2c(c3ccccc13)C(CCl)CN2C(=O)c1cc2cc(OC)c(OC)c(OC)c2[nH]1` (configuration not stated), which TGI is on record?
Answer: The TGI was 0.0155 µM.

Question: For `O=C(O)CN1CCN2CCCCCN(CC1)CCN(CC(=O)O)CC2`, which TGI is on record?
Answer: The TGI was greater than 100 µM.

Question: For `C=C(C(=O)OCC)C(=O)OCC`, which TGI is on record?
Answer: Its TGI is greater than 100 µM.

Question: Which TGI does the source give for `Cc1ccc(S(=O)(=O)n2c3c(c4ccccc42)CCN2C[C@H]([C@H](C)Br)CC[C@@H]32)cc1` here?
Answer: The TGI was greater than 100 µM.

Question: Which TGI does the source give for `O=c1oc2cc(O)ccc2c(O)c1C(c1ccccc1)c1c(O)c2ccc(O)cc2oc1=O` here?
Answer: Its TGI is greater than 100 µM.

Question: With `CC(C)c1cc2c(c(O)c1O)[C@@]1(C(=O)O)CCCC(C)(C)[C@@H]1CC2` as the compound, how does the TGI read?
Answer: The TGI was 30.8 µM.

Question: `COC1=CC(=O)c2c(c(-c3nc(C)cs3)cn2C)C1=O` was tested. Which TGI did it give?
Answer: Its TGI is 33.6 µM.

Question: For `Cc1c(O)nc(-n2[nH]c3c(c2=O)CCCC3)[nH]c1=O`, which TGI is on record?
Answer: The TGI was greater than 100 µM.

Question: How did the TGI turn out when `CCCNc1ncnc2c1ncn2C` was run?
Answer: Its TGI is greater than 100 µM.

Question: How did the TGI turn out when `CCOS(C)(=O)=O` was run?
Answer: Its TGI is greater than 100 µM.

Question: `CC(C)SC(=S)Sc1c(Cl)c(Cl)nc(Cl)c1Cl` was tested. Which TGI did it give?
Answer: Its TGI is 22.8 µM.

Question: `O=C(O)CN1CCNCCN(CC(=O)O)CCN(CC(=O)O)CCNCC1` was tested. Which TGI did it give?
Answer: The TGI was greater than 100 µM.

Question: Which TGI does the source give for `CC(NC(=O)Cc1ccccc1)NC(=O)C(C)C(=O)Nc1ccccc1` (configuration not stated) here?
Answer: Its TGI is greater than 100 µM.

Question: `CCCCCCCCCCCC[S+](C)C` was tested. Which TGI did it give?
Answer: The TGI was 20.2 µM.

System: HS 578T breast
Experiment: NCI anticancer screen, dose series, 48 h

Question: `CC1=CCC([C@@](C)(O)CCCC(C)(C)N=C=S)CC1` (some centres not stated) was tested. Which TGI did it give?
Answer: The TGI was 55.4 µM.

Question: For `CCN1CN(c2ccccc2)C2(CCN(CC3COc4ccccc4O3)CC2)C1=O` (configuration not stated), which TGI is on record?
Answer: The TGI was 60.2 µM.
